From ChEMBL document CHEMBL2016447, “Cyclopropyl Carboxamides: A New Oral Antimalarial Series Derived from the Tres Cantos Anti-Malarial Set (TCAMS)” (ACS Med Chem Lett, 2011)
In brackets after ≈: the same amount, converted by molar mass. Blank lines part the entries; values can stand above or below the molecule they belong to. Activity calls are given as the source filed them. The rule behind the calls is not given here.

Key:
Plasmodium falciparum [1] = assay: Antiplasmodial activity against Plasmodium falciparum 3D7 infected in human erythrocytes assessed as inhibition of [3H]hypoxanthine incorporation after 24 hrs by microbeta counter; format: functional, organism-based
Plasmodium falciparum [2] = assay: Antiplasmodial activity against Plasmodium falciparum 3D7 by parasite lactate dehydrogenase assay; format: functional, organism-based
Liver microsomes = assay: Intrinsic clearance in human liver microsomes assessed per gram of protein at 100 uM by HPLC analysis; format: ADME, Microsome
[3] = Half life in human liver microsomes at 100 uM by HPLC analysis; format: ADME, Microsome
[4] = Half life in mouse liver microsomes at 100 uM by HPLC analysis; format: ADME, Microsome
Liver = assay: Intrinsic clearance in mouse liver microsomes assessed per gram of protein at 100 uM by HPLC analysis; format: ADME, Microsome
Plasmodium falciparum [5] = assay: Antiplasmodial activity Plasmodium falciparum 3D70087/N9 infected in NODscidIL2Rgammac-/- mouse assessed as reduction of parasitemia administered 3 days after infection measured on day 3 to 7 by flow cytometry; format: functional; settings: 3D70087/N9, 72 h
[6] = Lipophilicity, log D of the compound by chromatographic hydrophobicity index assay; format: physicochemical
Cytochrome P450 3A4 = Cytochrome P450 3A4 (Homo sapiens, UniProt P08684); assay: Inhibition of CYP3A4; format: ADME
Cytochrome P450 3A4, sequence (P08684 whole entry): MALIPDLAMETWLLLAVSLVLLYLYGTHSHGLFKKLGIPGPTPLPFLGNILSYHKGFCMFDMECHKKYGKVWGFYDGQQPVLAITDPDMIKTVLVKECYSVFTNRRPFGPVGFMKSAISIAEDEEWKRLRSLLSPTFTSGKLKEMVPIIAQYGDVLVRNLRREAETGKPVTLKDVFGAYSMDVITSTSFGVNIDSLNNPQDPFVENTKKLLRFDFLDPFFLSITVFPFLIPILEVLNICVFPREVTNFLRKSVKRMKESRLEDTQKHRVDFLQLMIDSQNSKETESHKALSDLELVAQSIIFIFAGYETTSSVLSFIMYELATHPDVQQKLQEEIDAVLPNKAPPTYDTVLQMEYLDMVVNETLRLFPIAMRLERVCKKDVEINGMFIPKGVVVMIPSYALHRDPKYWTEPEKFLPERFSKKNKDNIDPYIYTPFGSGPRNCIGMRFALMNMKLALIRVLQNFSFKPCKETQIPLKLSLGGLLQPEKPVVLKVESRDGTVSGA

Cytochrome P450 2C9 = Cytochrome P450 2C9 (Homo sapiens, UniProt P11712); assay: Inhibition of CYP2C9; format: ADME
Cytochrome P450 2C9, sequence (P11712 whole entry): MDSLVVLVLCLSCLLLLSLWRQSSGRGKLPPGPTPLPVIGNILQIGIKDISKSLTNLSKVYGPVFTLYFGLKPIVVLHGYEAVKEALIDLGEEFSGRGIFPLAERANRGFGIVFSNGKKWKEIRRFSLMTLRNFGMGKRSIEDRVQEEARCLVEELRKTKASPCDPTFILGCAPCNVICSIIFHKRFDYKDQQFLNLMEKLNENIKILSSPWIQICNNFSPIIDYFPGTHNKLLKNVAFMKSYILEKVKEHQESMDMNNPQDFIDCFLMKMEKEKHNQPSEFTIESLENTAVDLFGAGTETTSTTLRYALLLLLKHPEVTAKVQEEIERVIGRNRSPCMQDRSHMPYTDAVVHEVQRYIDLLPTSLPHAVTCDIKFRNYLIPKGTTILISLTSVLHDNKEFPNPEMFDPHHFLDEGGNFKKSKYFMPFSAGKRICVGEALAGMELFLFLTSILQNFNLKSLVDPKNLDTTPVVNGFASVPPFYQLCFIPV

[7] = target: 3',5'-cyclic-AMP phosphodiesterase 4B (Homo sapiens) (UniProt Q07343); assay: Activity of PDE4B at 0.3 uM
3',5'-cyclic-AMP phosphodiesterase 4B (Homo sapiens), sequence (Q07343 whole entry): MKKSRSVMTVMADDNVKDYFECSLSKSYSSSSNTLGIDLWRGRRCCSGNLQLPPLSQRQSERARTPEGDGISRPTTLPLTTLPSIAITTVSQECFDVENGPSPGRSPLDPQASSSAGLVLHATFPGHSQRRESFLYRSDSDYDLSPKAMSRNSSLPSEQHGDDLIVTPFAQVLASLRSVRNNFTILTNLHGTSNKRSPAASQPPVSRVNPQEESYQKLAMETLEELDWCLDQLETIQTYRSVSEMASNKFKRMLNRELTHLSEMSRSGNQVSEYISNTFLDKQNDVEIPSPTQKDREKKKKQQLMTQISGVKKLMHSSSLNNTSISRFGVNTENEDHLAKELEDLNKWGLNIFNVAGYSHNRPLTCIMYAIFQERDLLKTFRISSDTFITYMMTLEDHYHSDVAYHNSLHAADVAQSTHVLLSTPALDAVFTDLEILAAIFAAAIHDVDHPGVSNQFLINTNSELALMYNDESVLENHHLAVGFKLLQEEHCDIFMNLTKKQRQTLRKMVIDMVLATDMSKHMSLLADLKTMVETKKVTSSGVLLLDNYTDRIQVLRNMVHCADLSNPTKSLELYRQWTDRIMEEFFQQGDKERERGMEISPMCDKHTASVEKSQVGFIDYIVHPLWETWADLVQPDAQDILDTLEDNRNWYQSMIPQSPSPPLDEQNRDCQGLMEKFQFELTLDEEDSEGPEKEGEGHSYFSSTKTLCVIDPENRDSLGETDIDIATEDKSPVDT

Cytochrome P450 2D6 = Cytochrome P450 2D6 (Homo sapiens, UniProt P10635); assay: Inhibition of CYP2D6; format: ADME
Cytochrome P450 2D6, sequence (P10635 whole entry): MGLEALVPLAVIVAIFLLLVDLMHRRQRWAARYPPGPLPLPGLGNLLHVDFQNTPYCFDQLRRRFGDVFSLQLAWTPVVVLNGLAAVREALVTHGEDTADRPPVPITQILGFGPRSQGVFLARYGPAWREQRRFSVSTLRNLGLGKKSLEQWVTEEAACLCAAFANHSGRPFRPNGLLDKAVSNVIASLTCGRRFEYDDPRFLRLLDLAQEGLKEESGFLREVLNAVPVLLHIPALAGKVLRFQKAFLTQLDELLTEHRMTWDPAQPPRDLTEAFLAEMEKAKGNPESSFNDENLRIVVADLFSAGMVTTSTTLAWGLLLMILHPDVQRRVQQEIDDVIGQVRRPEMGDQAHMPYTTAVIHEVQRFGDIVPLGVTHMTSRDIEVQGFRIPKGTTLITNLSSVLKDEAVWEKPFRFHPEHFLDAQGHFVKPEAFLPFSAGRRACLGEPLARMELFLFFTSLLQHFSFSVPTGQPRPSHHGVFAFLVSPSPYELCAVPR

[8] = target: T1, Nuclear receptor subfamily 1 group I member 2 (Homo sapiens, UniProt O75469); assay: Activity at PXR at 1 uM
T1 sequence (O75469 whole entry): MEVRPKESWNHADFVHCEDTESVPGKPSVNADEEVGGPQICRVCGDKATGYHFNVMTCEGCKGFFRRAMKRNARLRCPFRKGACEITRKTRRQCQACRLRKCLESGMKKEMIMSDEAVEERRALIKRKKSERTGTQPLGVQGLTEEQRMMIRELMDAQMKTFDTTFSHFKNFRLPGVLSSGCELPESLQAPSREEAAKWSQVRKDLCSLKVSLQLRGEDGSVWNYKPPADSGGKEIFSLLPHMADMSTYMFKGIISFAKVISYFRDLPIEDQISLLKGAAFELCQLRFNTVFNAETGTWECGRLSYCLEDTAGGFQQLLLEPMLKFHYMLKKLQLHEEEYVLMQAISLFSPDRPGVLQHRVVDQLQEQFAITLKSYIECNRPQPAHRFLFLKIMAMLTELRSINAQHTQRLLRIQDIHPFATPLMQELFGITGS

[9] = Half life in CD1 mouse at 2 mg/kg, iv administered with 3% solutol, 7% PEG in saline by LC/MS analysis; format: ADME, organism-based; set-up: dose 2 mg/kg, route intravenous; settings: in vivo
[10] = Solubility of the compound in DMSO by chemiluminescent nitrogen detection assay; format: physicochemical
Mus musculus [11] = assay: AUC (0 to t) in CD1 mouse at 20 mg/kg, po administered with 1% methylcellulose in water by LC/MS analysis; format: ADME, organism-based; set-up: dose 20 mg/kg, route oral; settings: in vivo
[12] = Protein binding in mouse plasma; format: ADME, cell-free; settings: read-out: PPB (converted)
[13] = target: T1, Nuclear receptor subfamily 1 group I member 2; assay: Activity at PXR at 2.5 uM
[14] = Clearance in CD1 mouse at 2 mg/kg, iv and 20 mg/kg, po by LC/MS analysis; format: ADME, organism-based; settings: in vivo
Mus musculus [15] = assay: AUC (0 to t) in CD1 mouse at 2 mg/kg, iv administered with 3% solutol, 7% PEG in saline by LC/MS analysis; format: ADME, organism-based, Plasma; set-up: dose 2 mg/kg, route intravenous; settings: in vivo
[16] = Cmax in CD1 mouse at 20 mg/kg, po administered with 1% methylcellulose in water by LC/MS analysis; format: ADME, organism-based; set-up: dose 20 mg/kg, route oral; settings: in vivo
[17] = Volume of distribution in CD1 mouse at 2 mg/kg, iv and 20 mg/kg, po by LC/MS analysis; format: ADME, organism-based; settings: in vivo
[18] = Oral bioavailability in CD1 mouse at 20 mg/kg administered with 1% methylcellulose in water by LC/MS analysis; format: ADME, organism-based; settings: in vivo
Cytochrome P450 2C19 = Cytochrome P450 2C19 (Homo sapiens, UniProt P33261); assay: Inhibition of CYP2C19; format: ADME
Cytochrome P450 2C19, sequence (P33261 whole entry): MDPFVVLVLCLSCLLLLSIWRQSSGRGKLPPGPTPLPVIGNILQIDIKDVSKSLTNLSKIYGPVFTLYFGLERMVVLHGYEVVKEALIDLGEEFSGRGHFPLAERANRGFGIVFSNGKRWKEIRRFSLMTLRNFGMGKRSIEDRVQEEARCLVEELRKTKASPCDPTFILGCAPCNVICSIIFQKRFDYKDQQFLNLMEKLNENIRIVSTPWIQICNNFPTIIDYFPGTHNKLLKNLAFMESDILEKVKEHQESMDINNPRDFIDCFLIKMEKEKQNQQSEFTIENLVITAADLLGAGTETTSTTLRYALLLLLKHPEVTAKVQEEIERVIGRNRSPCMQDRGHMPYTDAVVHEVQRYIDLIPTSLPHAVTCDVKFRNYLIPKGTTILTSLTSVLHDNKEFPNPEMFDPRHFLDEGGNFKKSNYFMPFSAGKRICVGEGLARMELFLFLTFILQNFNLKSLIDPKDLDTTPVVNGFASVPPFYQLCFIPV

[19] = Protein binding in human plasma; format: ADME, cell-free; settings: read-out: PPB
[20] = Clearance in CD1 mouse at 2 mg/kg, iv and 20 mg/kg, po by LC/MS analysis; settings: in vivo
[21] = Volume of distribution in CD1 mouse at 2 mg/kg, iv and 20 mg/kg, po by LC/MS analysis; settings: in vivo
Mus musculus [22] = assay: AUC (0 to t) in CD1 mouse at 2 mg/kg, iv administered with 20% encapsine in water by LC/MS analysis; settings: in vivo
[23] = Half life in CD1 mouse at 2 mg/kg, iv administered with 20% encapsine in water by LC/MS analysis; settings: in vivo

CLint (Liver microsomes): 2.9 mL/min/g | half-life at 100 µM [3]: 24.7 min | half-life at 100 µM [4]: 12 min | CLint (Liver): 5.3 mL/min/g
Compound: CC(Oc1ccccc1)C(=O)Nc1cc(C(F)(F)F)ccc1-n1cncn1 (racemic)
IC50 (Plasmodium falciparum [1]): 897 nM

CLint (Liver microsomes): 1.2 mL/min/g | half-life at 100 µM [3]: > 30 min | half-life at 100 µM [4]: 6.2 min | CLint (Liver): 7.9 mL/min/g
Compound: CC(Oc1cccc(Cl)c1)C(=O)Nc1cc(C(F)(F)F)ccc1-n1cncn1 (racemic)
IC50 (Plasmodium falciparum [1]): 327 nM

chromatographic logD [6]: 3.84 | CLint (Liver microsomes): 3.3 mL/min/g | half-life at 100 µM [3]: 21.8 min | half-life at 100 µM [4]: 13.6 min | CLint (Liver): 4.1 mL/min/g
Compound: CC(Oc1ccc(Cl)cc1)C(=O)Nc1cc(C(F)(F)F)ccc1-n1cncn1 (racemic)
IC50 (Plasmodium falciparum [1]): 394 nM

INH (Cytochrome P450 3A4): > 10 µM | INH (Cytochrome P450 2C9): 6.3 µM | Activity [7]: Active | INH (Cytochrome P450 2D6): > 10 µM | Activity [8]: Active | half-life [9]: 612 min | solubility [10]: 9 µM (≈ 3.96 µg/mL) | AUCt (Mus musculus [11]): 13.6 µg/h/mL | fraction unbound [12]: 0.006 | Activity [13]: Active | clearance [14]: 14.3 mL/min/kg | AUCt (Mus musculus [15]): 2.23 µg/h/mL | Cmax [16]: 1090 ng/mL | Vd [17]: 11.9 L/kg | bioavailability [18]: 55% | INH (Cytochrome P450 2C19): > 10 µM
Compound: O=C(Nc1cc(C(F)(F)F)ccc1-n1cncn1)C1(c2cccc(C(F)(F)F)c2)CC1
ED50 (Plasmodium falciparum [5]): 12 mg/kg | ED90 (Plasmodium falciparum [5]): 20 mg/kg

CLint (Liver microsomes): 1.6 mL/min/g | half-life at 100 µM [3]: > 30 min | half-life at 100 µM [4]: 11.7 min | CLint (Liver): 5.6 mL/min/g
Compound: CC(Oc1ccccc1Cl)C(=O)Nc1cc(C(F)(F)F)ccc1-n1cncn1 (racemic)
IC50 (Plasmodium falciparum [1]): 190 nM

INH (Cytochrome P450 3A4): > 10 µM | INH (Cytochrome P450 2C9): 7.9 µM | fraction unbound [19]: 0.01 | clearance [20]: 29.7 mL/min/kg | INH (Cytochrome P450 2D6): > 10 µM | solubility [10]: 100 µM (≈ 37.2 µg/mL) | Vd [21]: 6.47 L/kg | chromatographic logD [6]: 3.83 | AUCt (Mus musculus [11]): 9.71 µg/h/mL | fraction unbound [12]: 0.01 | AUCt (Mus musculus [22]): 0.596 µg/h/mL | Activity [13]: Active | Cmax [16]: 2340 ng/mL | bioavailability [18]: 81% | half-life [23]: 166 min | INH (Cytochrome P450 2C19): > 10 µM
Compound: O=C(Nc1cc(C(F)(F)F)ccc1-n1cncn1)C1(c2ccccc2)CC1
IC50 (Plasmodium falciparum [1]): 66 nM | ED50 (Plasmodium falciparum [5]): > 50 mg/kg | ED90 (Plasmodium falciparum [5]): > 50 mg/kg

Continued, molecule first:

Compound: CC(Oc1cccc(C(F)(F)F)c1)C(=O)Nc1cc(C(F)(F)F)ccc1-n1cncn1 (racemic)
IC50 (Plasmodium falciparum [1]): 285 nM

Compound: Cc1ccnc2nc(C(=O)Nc3cc(C(F)(F)F)ccc3N3CCCCC3)nn12
IC50 (Plasmodium falciparum [2]): 73 nM | IC50 (Plasmodium falciparum [1]): 3970 nM

Compound: CCN(CC)CCCC(C)Nc1ccnc2cc(Cl)ccc12 (configuration not stated) [CHLOROQUINE]
ED50 (Plasmodium falciparum [5]): 2 mg/kg

Compound: O=C(Nc1cc(Cl)ccc1-n1cncn1)C1(c2ccccc2)CC1
IC50 (Plasmodium falciparum [1]): 1700 nM

Compound: Cc1cc(C)n2nc(C(=O)Nc3cc(C(F)(F)F)ccc3N3CCOCC3)nc2n1
IC50 (Plasmodium falciparum [2]): 11 nM | IC50 (Plasmodium falciparum [1]): > 5000 nM

Compound: CC(Oc1ccc(Cl)cc1)C(=O)Nc1cc(C(F)(F)F)ccc1N1CCOCC1 (racemic)
chromatographic logD [6]: 4.56 | IC50 (Plasmodium falciparum [1]): 439 nM
